Reference: the supplement of paper PMC10307832

What was measured:
Experiment in all cases: relative viability (nuclei count vs DMSO), 5 days (fraction); higher = more cells survive
Cediranib + Palbociclib = compound: COc1cc2c(Oc3ccc4[nH]c(C)cc4c3F)ncnc2cc1OCCCN1CCCC1 [Cediranib] + CC(=O)c1c(C)c2cnc(Nc3ccc(N4CCNCC4)cn3)nc2n(C2CCCC2)c1=O [Palbociclib] (partner 0.5 µM)
How it was run: (§1)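 Lung cancer cell lines were seeded in 1536-well plates and dosed by pin tool the next day, with either a single drug or a fixed anchor-drug dose combined with five library-drug doses (not always all listed) spaced in √10 steps. Five days later, one step fixed the cells and stained their nuclei (final 0.05% Triton X-100, 1% formaldehyde, 1 ug/ml Hoechst), and nuclei were counted on 4× images. Relative viability is the nuclei count in treated wells divided by the count in vehicle wells, and each value is the median of duplicate plates.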

Cediranib + Phenformin = compound: COc1cc2c(Oc3ccc4[nH]c(C)cc4c3F)ncnc2cc1OCCCN1CCCC1 [Cediranib] + N=C(N)NC(=N)NCCc1ccccc1 [Phenformin] (partner 250 µM)
How it was run: as §1

Decitabine + Palbociclib = compound: Nc1ncn([C@H]2C[C@H](O)[C@@H](CO)O2)c(=O)n1 [Decitabine] + CC(=O)c1c(C)c2cnc(Nc3ccc(N4CCNCC4)cn3)nc2n(C2CCCC2)c1=O [Palbociclib] (partner 0.5 µM)
How it was run: as §1

[1] = compound: O=C(C[C@H]1NCCC[C@@H]1O)Cn1cnc2cc(Br)c(Cl)cc2c1=O (racemic) [Halofuginone] + Nc1ncn([C@H]2C[C@H](O)[C@@H](CO)O2)c(=O)n1 [Decitabine] (partner 2 µM)
How it was run: as §1

| Cell Line | relative viability (Cediranib + Palbociclib; first compound 0.04 µM) | relative viability (Cediranib + Palbociclib; first compound 0.1265 µM) | relative viability (Cediranib + Palbociclib; first compound 0.4 µM) | relative viability (Cediranib + Palbociclib; first compound 1.265 µM) | relative viability (Cediranib + Palbociclib; first compound 4 µM) | relative viability (Cediranib + Phenformin; first compound 0.04 µM) | relative viability (Cediranib + Phenformin; first compound 0.1265 µM) | relative viability (Cediranib + Phenformin; first compound 0.4 µM) | relative viability (Cediranib + Phenformin; first compound 1.265 µM) | relative viability (Cediranib + Phenformin; first compound 4 µM) | relative viability (Decitabine + Palbociclib; first compound 0.04 µM) | relative viability (Decitabine + Palbociclib; first compound 0.1265 µM) | relative viability (Decitabine + Palbociclib; first compound 0.4 µM) | relative viability (Decitabine + Palbociclib; first compound 1.265 µM) | relative viability (Decitabine + Palbociclib; first compound 4 µM) | relative viability ([1]; first compound 0.001 µM) | relative viability ([1]; first compound 0.003162 µM) | relative viability ([1]; first compound 0.01 µM) | relative viability ([1]; first compound 0.03162 µM) | relative viability ([1]; first compound 0.1 µM) |
| --- | --- | --- | --- | --- | --- | --- | --- | --- | --- | --- | --- | --- | --- | --- | --- | --- | --- | --- | --- | --- |
| NCI-H520 | 0.262 | 0.22 | 0.175 | 0.162 | 0.179 | 0.704 | 0.543 | 0.503 | 0.363 | 0.464 | 0.22 | 0.23 | 0.204 | 0.17 | 0.184 | 0.529 | 0.498 | 0.579 | 0.607 | 0.347 |
| NCI-H522 | 1.04 | 0.899 | 0.891 | 0.998 | 1.07 | 0.623 | 0.608 | 0.575 | 0.64 | 0.687 | 0.97 | 0.803 | 0.817 | 0.634 | 0.533 | 0.735 | 0.673 | 0.871 | 0.753 | 0.717 |
| NCI-H647 | 0.349 | 0.385 | 0.336 | 0.457 | 0.448 | 0.513 | 0.504 | 0.47 | 0.605 | 0.441 | 0.269 | 0.489 | 0.236 | 0.123 | 0.117 | 0.408 | 0.452 | 0.432 | 0.334 | 0.215 |
| NCI-H650 | 0.381 | 0.321 | 0.334 | 0.34 | 0.308 | 0.497 | 0.388 | 0.475 | 0.476 | 0.437 | 0.268 | 0.243 | 0.198 | 0.191 | 0.182 | 0.362 | 0.314 | 0.285 | 0.323 | 0.28 |
| NCI-H661 | 0.452 | 0.441 | 0.405 | 0.391 | 0.442 | 0.294 | 0.296 | 0.281 | 0.267 | 0.31 | 0.489 | 0.468 | 0.417 | 0.348 | 0.361 | 0.595 | 0.618 | 0.564 | 0.555 | 0.479 |
| NCI-H727 | 0.649 | 0.736 | 0.703 | 0.616 | 0.644 |  |  | 0.483 | 0.528 | 0.533 | 0.641 | 0.608 | 0.653 | 0.617 | 0.6 | 0.85 | 0.764 | 0.954 | 0.944 | 0.723 |
| NCI-H838 | 0.229 | 0.228 | 0.218 | 0.181 | 0.214 | 0.588 | 0.513 | 0.49 | 0.452 | 0.603 | 0.259 | 0.275 | 0.194 | 0.211 | 0.199 | 0.502 | 0.465 | 0.445 | 0.458 | 0.281 |
| NCI-H1355 | 0.413 | 0.426 | 0.367 | 0.39 | 0.423 | 0.441 | 0.456 | 0.427 | 0.442 | 0.408 | 0.374 | 0.345 | 0.329 | 0.275 | 0.277 | 0.401 | 0.332 | 0.359 | 0.351 | 0.385 |
| NCI-H1395 | 0.622 | 0.615 | 0.629 | 0.623 | 0.535 | 0.49 | 0.427 | 0.467 | 0.444 | 0.42 | 0.583 | 0.606 | 0.6 | 0.55 | 0.523 | 0.662 | 0.69 | 0.751 | 0.631 | 0.519 |
| NCI-H1437 | 0.32 | 0.305 | 0.291 | 0.349 | 0.335 | 0.317 | 0.285 | 0.332 | 0.363 | 0.369 | 0.343 | 0.321 | 0.247 | 0.265 | 0.28 | 0.621 | 0.555 | 0.513 | 0.522 | 0.522 |
| NCI-H1650 | 0.421 | 0.328 | 0.304 | 0.404 | 0.334 | 0.436 | 0.581 | 0.351 | 0.362 | 0.341 | 0.262 | 0.353 | 0.248 | 0.255 | 0.293 | 0.468 | 0.5 | 0.439 | 0.491 | 0.369 |
| NCI-H1651 | 0.534 | 0.551 | 0.499 | 0.523 | 0.527 | 0.321 | 0.327 | 0.277 | 0.321 | 0.311 | 0.522 | 0.508 | 0.515 | 0.389 | 0.403 | 0.592 | 0.563 | 0.601 | 0.591 | 0.58 |
| NCI-H1666 | 0.681 | 0.61 | 0.636 | 0.644 | 0.658 | 0.564 | 0.488 | 0.524 | 0.548 | 0.579 | 0.692 | 0.684 | 0.675 | 0.553 | 0.647 | 0.769 | 0.601 | 0.724 | 0.795 | 0.794 |
| NCI-H1734 | 0.322 | 0.348 | 0.383 | 0.356 | 0.305 | 0.403 | 0.458 | 0.383 | 0.388 | 0.433 | 0.331 | 0.338 | 0.32 | 0.284 | 0.236 | 0.542 | 0.508 | 0.522 | 0.491 | 0.293 |
| NCI-H1755 | 0.441 | 0.429 | 0.436 | 0.441 | 0.422 | 0.528 | 0.519 | 0.616 | 0.618 | 0.677 | 0.461 | 0.495 | 0.424 | 0.431 | 0.407 | 0.693 | 0.699 | 0.726 | 0.746 | 0.748 |
| NCI-H1792 | 0.599 | 0.607 | 0.584 | 0.739 | 0.682 | 0.237 | 0.41 | 0.197 | 0.322 | 0.284 | 0.753 | 0.76 | 0.646 | 0.595 | 0.512 | 0.652 | 0.609 | 0.529 | 0.541 | 0.186 |
| NCI-H1793 | 0.306 | 0.277 | 0.3 | 0.271 | 0.311 | 0.231 | 0.32 | 0.39 |  | 0.393 | 0.339 | 0.329 | 0.381 | 0.301 | 0.31 | 0.511 | 0.6 | 0.505 | 0.5 | 0.21 |
| NCI-H1915 | 0.549 | 0.491 | 0.506 | 0.512 | 0.553 | 0.371 | 0.331 | 0.372 | 0.374 | 0.364 | 0.328 | 0.209 | 0.22 | 0.194 | 0.192 | 0.25 | 0.265 | 0.257 | 0.274 | 0.253 |
| NCI-H1944 | 0.331 | 0.386 | 0.315 | 0.346 | 0.313 | 0.211 | 0.223 | 0.167 | 0.205 | 0.235 | 0.331 | 0.32 | 0.313 | 0.294 | 0.281 | 0.4 | 0.435 | 0.396 | 0.407 | 0.451 |
| NCI-H1975 | 0.62 | 0.608 | 0.491 | 0.578 | 0.547 | 0.421 | 0.415 | 0.394 | 0.459 | 0.426 | 0.395 | 0.46 | 0.285 | 0.231 | 0.301 | 0.4 | 0.408 | 0.436 | 0.385 | 0.285 |
| NCI-H1993 |  | 0.634 | 0.64 | 0.656 | 0.637 | 0.423 | 0.5 | 0.484 | 0.523 | 0.393 | 0.646 | 0.589 | 0.645 | 0.503 | 0.583 | 0.636 | 0.635 | 0.52 | 0.565 | 0.443 |
| NCI-H2009 | 0.308 | 0.188 | 0.19 | 0.0997 | 0.211 | 0.492 | 0.434 | 0.481 | 0.481 | 0.493 | 0.43 | 0.231 | 0.116 | 0.193 | 0.275 | 0.343 | 0.332 | 0.403 | 0.415 | 0.308 |
| NCI-H2023 | 0.398 | 0.344 | 0.359 | 0.413 | 0.397 | 0.417 | 0.443 | 0.396 | 0.42 | 0.458 | 0.329 | 0.36 | 0.287 | 0.23 | 0.157 | 0.234 | 0.232 | 0.213 | 0.182 | 0.0828 |
| NCI-H2085 | 0.5 | 0.48 | 0.469 | 0.473 | 0.466 | 0.655 | 0.844 | 0.632 | 0.753 | 0.814 | 0.465 | 0.403 | 0.408 | 0.335 | 0.395 | 0.562 | 0.542 | 0.546 | 0.581 | 0.52 |
| NCI-H2087 | 0.243 | 0.24 | 0.249 | 0.182 | 0.224 | 0.382 | 0.45 | 0.402 | 0.452 | 0.546 | 0.204 | 0.265 | 0.204 | 0.202 | 0.221 | 0.3 | 0.356 | 0.308 | 0.27 | 0.228 |
| NCI-H2126 | 0.349 | 0.358 | 0.359 | 0.349 | 0.314 | 0.515 | 0.526 | 0.53 | 0.516 | 0.538 | 0.367 | 0.354 | 0.313 | 0.36 | 0.372 | 0.586 | 0.612 | 0.58 | 0.52 | 0.588 |
| NCI-H2170 | 0.438 |  | 0.371 | 0.372 | 0.381 | 0.373 | 0.284 | 0.403 | 0.406 | 0.419 | 0.314 | 0.341 | 0.334 | 0.256 | 0.227 | 0.479 | 0.47 | 0.453 | 0.489 | 0.457 |
